ChEMBL document CHEMBL1201862, “PubChem BioAssay data set” (2004)
Calls of active or inactive are those of the source.

How the values were obtained:
Hexokinase = Hexokinase (Trypanosoma brucei, UniProt Q38C41); experiment: Confirmation assay for inhibitors of Trypanosoma brucei hexokinase 1-Analogue-first series. [Related pubchem assays (depositor defined):AID1430, AID1632, AID2516, AID2560, AID2579, AID2600, AID449725, AID492951]; type: functional
Vero [1] = experiment: West Nile virus antiviral activity, cell-based, CPE readout (AID 1621); type: functional; settings: Chlorocebus sabaeus
Vero [2] = experiment: West Nile virus CPE inhibition, SAR follow-up, cell-based, synthesized analogs (AID 2238); type: functional; settings: Chlorocebus sabaeus
[3] = Luminescence Cell-Based Dose Retest to Confirm Inhibitors of Cancer Stem Cells. [Related pubchem assays (depositor defined):AID2717, AID2721]; type: functional; settings: Homo sapiens
Vero [4] = experiment: Vero E6 cell cytotoxicity, SAR follow-up, cytotoxicity control for West Nile virus antiviral project, synthesized analogs (AID 2244); type: functional; settings: Chlorocebus sabaeus
Hexokinase-1 = Hexokinase-1 (Homo sapiens, UniProt P19367); experiment: hexokinase 1 activators, dose response, selectivity assay for HKDC1 activator project, biochemical (AID 504762); type: functional
Hexokinase-1, sequence (P19367 whole entry): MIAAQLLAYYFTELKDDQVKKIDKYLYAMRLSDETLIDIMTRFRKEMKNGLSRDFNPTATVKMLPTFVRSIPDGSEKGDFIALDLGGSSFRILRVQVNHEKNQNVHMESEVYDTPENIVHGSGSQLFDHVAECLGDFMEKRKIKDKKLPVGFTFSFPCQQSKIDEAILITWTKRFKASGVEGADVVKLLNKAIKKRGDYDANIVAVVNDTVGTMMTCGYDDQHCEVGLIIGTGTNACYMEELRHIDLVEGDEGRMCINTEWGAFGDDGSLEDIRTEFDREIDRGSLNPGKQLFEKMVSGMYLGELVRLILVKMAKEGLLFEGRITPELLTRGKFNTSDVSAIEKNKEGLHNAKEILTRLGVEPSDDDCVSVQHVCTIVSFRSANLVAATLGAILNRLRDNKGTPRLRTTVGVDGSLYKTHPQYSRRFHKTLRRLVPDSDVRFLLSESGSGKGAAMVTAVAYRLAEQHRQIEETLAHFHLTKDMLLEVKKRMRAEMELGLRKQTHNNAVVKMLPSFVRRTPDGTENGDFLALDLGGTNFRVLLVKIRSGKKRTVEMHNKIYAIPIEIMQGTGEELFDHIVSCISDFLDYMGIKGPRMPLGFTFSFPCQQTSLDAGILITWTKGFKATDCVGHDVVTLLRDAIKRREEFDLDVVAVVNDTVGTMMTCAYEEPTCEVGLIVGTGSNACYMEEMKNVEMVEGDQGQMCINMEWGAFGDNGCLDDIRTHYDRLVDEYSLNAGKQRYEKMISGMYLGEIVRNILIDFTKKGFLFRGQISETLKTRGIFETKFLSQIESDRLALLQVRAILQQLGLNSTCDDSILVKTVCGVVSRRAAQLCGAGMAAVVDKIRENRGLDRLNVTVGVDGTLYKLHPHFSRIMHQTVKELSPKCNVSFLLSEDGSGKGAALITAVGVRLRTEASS

Hexokinase HKDC1 = molecular target: T1, Hexokinase HKDC1 (Homo sapiens, UniProt Q2TB90); experiment: HKDC1 hexokinase inhibitors, dose response, biochemical, W721R variant (AID 504729); type: functional
T1 sequence (Q2TB90 whole entry): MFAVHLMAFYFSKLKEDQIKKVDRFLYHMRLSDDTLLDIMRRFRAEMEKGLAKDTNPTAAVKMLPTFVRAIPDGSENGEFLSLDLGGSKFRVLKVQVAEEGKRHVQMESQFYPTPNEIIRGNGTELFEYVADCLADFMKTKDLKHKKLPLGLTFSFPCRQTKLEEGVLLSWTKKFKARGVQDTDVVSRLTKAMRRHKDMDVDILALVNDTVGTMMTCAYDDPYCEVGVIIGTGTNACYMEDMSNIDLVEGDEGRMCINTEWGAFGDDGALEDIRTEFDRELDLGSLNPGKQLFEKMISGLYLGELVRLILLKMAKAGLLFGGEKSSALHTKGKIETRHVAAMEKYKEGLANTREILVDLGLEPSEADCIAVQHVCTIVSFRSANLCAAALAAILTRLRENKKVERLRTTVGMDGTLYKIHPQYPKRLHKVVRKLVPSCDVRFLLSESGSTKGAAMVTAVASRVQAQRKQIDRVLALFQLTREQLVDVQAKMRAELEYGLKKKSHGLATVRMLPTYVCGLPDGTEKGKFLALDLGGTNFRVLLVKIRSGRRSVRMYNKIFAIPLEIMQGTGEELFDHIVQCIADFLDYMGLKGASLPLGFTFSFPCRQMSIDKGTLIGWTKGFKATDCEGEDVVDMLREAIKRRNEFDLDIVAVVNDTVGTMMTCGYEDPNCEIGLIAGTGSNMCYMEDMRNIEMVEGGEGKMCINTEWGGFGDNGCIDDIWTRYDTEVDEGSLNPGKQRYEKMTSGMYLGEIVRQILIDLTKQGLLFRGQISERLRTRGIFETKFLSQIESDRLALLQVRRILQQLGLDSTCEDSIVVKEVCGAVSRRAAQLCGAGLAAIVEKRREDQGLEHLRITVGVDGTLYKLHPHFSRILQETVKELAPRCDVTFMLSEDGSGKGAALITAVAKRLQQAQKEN

[5] = molecular target: T2, Short transient receptor potential channel 4 (Mus musculus, UniProt Q9QUQ5); experiment: TRPC4 positive allosteric modulators, dose response, cell-based, HEK293 TRPC4/mu-opioid, Fluo-4 calcium, EC20 DAMGO (AID 434941); type: functional
T2 sequence (Q9QUQ5 whole entry): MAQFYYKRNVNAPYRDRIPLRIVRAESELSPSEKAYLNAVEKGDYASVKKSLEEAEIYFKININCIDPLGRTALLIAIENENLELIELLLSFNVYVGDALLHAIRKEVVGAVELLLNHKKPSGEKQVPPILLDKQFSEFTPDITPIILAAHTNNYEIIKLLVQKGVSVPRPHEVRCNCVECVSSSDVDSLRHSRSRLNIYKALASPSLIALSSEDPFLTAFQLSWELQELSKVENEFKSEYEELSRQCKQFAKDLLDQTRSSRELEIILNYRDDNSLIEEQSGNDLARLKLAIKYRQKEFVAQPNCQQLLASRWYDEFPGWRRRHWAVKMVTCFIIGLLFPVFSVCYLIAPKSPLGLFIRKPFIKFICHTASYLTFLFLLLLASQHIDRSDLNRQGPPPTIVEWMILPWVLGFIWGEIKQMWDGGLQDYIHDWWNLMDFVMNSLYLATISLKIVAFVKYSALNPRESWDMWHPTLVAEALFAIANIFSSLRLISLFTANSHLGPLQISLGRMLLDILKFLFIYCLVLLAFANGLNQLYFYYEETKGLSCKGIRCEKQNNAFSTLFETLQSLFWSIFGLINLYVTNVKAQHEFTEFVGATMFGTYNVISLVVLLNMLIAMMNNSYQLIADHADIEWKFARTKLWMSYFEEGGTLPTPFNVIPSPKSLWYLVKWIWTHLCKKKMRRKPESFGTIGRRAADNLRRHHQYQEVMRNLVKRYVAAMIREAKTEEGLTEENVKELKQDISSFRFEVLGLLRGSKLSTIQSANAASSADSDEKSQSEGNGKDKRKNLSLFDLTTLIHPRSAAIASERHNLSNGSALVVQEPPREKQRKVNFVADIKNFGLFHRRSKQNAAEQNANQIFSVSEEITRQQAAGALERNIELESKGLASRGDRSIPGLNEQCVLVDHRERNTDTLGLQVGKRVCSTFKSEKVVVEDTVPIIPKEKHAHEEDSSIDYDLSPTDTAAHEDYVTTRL

[6] = molecular target: T3, Calpain-2 catalytic subunit (Sus scrofa, UniProt P43367); experiment: pig calpain II inhibitor potency, dose response, biochemical, fluorogenic peptide substrate (AID 1420); type: functional
T3 sequence (P43367 whole entry): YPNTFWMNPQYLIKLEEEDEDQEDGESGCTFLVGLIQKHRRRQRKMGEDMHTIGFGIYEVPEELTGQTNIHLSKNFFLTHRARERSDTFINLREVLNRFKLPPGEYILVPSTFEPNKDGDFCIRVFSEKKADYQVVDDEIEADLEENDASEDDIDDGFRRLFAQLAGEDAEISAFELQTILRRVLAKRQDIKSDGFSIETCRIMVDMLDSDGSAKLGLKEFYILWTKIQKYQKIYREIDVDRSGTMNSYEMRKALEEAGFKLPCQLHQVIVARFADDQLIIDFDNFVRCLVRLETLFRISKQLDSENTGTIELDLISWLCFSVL

Aminopeptidase N = molecular target: T4, Aminopeptidase N (Plasmodium falciparum FcB1/Columbia, UniProt O96935); experiment: P. falciparum M1AAP inhibitors, biochemical, fluorogenic H-Leu-NHMec substrate, 1536-well (AID 1445); set-up: species or system Plasmodium falciparum 3D7, 3D7
T4 sequence (O96935 whole entry): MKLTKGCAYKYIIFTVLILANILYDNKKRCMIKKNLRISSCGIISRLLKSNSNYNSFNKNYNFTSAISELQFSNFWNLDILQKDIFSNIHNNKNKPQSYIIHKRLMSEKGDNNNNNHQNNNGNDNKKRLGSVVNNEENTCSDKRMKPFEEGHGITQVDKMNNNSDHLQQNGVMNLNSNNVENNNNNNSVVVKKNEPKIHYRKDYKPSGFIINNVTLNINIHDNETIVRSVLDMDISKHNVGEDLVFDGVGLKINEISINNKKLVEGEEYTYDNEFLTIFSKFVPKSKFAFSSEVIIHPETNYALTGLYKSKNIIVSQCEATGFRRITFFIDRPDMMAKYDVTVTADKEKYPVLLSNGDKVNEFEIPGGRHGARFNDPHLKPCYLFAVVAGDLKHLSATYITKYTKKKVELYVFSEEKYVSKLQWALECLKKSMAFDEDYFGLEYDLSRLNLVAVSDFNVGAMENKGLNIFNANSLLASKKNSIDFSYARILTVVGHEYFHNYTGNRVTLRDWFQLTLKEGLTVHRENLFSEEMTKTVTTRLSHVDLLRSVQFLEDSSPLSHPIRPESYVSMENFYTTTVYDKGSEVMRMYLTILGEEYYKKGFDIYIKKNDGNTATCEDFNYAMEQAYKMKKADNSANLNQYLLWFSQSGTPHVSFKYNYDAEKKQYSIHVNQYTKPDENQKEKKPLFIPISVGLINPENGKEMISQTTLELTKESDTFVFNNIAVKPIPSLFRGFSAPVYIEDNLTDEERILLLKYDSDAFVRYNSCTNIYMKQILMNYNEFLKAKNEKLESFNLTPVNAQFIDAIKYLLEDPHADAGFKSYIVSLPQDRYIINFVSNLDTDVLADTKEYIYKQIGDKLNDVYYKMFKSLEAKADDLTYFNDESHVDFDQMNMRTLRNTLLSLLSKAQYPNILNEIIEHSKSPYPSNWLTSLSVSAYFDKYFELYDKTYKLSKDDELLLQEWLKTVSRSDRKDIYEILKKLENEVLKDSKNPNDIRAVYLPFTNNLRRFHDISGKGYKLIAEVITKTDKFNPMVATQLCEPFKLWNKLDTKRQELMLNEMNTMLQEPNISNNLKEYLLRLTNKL

Fatty acid synthase [7] = molecular target: T5, Fatty acid synthase (Homo sapiens, UniProt P49327); experiment: FAS thioesterase domain inhibitors, dose response, biochemical, kinetic fluorescence intensity (AID 624326); type: functional;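 further: rate of fluorescence rise from hydrolysis of a fluorogenic O-methyl fluorescein ester substrate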
T5 sequence (P49327 whole entry, the tested form may be a part): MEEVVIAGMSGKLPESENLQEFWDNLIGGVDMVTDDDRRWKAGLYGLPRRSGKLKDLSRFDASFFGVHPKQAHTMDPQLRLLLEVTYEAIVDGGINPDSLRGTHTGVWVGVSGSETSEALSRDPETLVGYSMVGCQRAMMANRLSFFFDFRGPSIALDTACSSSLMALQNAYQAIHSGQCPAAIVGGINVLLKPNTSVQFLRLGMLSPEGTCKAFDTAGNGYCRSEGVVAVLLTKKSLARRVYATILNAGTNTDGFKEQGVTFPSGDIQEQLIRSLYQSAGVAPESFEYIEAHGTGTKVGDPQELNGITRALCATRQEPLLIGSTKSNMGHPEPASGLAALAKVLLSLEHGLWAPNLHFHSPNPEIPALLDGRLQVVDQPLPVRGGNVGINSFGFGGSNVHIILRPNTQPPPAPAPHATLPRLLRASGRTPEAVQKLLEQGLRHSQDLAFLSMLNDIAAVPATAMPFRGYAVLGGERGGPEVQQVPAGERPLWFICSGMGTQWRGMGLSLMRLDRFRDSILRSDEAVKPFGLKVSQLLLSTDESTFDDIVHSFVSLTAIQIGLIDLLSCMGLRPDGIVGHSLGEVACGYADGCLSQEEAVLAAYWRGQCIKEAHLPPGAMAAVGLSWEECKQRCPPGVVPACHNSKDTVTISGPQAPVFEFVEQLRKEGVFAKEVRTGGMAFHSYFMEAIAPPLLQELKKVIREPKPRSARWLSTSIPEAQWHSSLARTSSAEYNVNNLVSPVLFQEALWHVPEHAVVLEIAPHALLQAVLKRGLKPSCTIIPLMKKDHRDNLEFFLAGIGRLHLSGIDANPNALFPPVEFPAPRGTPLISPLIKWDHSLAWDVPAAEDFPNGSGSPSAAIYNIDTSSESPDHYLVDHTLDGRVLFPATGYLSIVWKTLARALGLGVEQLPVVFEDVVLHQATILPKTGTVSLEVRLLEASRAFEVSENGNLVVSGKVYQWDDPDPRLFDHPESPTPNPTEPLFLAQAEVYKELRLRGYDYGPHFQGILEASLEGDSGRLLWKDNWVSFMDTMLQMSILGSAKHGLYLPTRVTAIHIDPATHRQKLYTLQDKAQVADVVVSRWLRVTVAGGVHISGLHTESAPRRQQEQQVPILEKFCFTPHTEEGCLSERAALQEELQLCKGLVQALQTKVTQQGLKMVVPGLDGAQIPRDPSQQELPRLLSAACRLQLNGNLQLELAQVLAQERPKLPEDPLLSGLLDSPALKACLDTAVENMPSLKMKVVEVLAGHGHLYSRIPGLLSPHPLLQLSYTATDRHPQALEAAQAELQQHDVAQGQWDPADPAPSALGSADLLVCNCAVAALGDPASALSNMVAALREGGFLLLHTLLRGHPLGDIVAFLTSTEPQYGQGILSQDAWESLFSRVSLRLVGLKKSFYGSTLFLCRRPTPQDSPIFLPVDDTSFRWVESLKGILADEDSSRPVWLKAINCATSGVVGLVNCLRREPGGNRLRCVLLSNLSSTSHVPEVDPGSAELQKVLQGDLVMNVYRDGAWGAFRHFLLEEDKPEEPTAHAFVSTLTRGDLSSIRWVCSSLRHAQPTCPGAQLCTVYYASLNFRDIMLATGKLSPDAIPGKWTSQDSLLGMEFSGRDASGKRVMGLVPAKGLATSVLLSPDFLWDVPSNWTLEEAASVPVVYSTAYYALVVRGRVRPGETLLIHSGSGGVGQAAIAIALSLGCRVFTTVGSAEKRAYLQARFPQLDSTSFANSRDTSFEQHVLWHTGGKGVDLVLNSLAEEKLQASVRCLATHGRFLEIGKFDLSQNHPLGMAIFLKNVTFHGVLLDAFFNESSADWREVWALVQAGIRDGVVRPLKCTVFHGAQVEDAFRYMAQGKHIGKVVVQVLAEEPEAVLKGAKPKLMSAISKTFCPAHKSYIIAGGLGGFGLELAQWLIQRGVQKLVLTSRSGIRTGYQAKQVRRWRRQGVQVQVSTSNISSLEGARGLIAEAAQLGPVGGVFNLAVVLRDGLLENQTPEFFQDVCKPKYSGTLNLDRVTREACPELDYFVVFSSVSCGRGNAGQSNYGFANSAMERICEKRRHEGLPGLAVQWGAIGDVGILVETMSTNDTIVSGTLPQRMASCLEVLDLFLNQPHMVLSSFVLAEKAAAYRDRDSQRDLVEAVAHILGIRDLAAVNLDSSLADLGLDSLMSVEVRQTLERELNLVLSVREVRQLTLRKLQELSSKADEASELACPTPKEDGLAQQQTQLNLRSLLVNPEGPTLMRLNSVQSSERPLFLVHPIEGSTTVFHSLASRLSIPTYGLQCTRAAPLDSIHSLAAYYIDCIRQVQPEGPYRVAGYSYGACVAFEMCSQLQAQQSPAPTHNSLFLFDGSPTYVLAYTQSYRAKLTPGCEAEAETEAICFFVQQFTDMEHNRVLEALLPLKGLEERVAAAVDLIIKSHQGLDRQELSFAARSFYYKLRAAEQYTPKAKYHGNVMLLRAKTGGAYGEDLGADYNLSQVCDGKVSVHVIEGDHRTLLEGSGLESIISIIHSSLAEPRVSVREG

Streptokinase A = molecular target: T6, Streptokinase A (Streptococcus pyogenes serotype M1, UniProt P10520); experiment: S. pyogenes streptokinase expression inhibitors, potency, dose response, plasminogen activation absorbance, OD405 (AID 1914); type: functional, Streptococcus pyogenes M1 GAS;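 further: secreted streptokinase activity via plasminogen activation per viability signal from cell pellet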
T6 sequence (P10520 whole entry): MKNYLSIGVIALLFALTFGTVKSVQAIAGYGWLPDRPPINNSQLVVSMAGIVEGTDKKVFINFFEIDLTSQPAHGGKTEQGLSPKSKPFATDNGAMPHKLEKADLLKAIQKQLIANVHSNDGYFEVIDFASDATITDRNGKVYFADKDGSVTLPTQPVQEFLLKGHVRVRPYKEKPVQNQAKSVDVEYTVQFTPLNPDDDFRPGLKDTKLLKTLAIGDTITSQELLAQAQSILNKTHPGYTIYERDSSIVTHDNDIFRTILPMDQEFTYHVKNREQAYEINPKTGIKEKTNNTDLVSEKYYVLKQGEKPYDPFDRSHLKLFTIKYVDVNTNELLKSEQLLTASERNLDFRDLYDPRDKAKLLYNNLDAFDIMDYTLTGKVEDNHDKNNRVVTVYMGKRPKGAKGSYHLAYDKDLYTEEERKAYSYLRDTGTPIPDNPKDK

[8] = molecular target: Bifunctional protein GlmU (Mycobacterium tuberculosis, UniProt P9WMN3); experiment: Inhibitors of Mycobacterial Glucosamine-1-phosphate acetyl transferase (GlmU). Secondary screen.; set-up: species or system Mycobacterium tuberculosis H37Rv
Bifunctional protein GlmU, sequence (P9WMN3 whole entry): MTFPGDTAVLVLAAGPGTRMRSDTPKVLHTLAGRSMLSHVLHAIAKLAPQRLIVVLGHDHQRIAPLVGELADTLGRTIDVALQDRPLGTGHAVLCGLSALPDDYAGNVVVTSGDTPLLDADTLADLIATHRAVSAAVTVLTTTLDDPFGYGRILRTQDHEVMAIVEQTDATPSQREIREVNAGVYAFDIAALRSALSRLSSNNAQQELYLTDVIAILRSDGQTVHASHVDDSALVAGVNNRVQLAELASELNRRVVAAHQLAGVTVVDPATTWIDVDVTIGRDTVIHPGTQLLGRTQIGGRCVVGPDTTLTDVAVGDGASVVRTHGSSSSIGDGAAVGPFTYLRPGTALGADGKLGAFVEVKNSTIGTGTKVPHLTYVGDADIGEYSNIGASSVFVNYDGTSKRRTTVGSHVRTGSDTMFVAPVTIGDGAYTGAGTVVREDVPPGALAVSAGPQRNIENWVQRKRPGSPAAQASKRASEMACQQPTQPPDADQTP

[9] = system: Streptococcus sp. 'group A'; experiment: growth inhibition of control SK(-) GAS strain, dose response, counter-screen for streptokinase expression inhibitor project, luminescence, kanamycin, BacTiterGlo, confirmation (AID 1900); type: functional, organism-based
[10] = molecular target: Envelope glycoprotein gp160 (Human immunodeficiency virus 1, UniProt Q6QLK5); experiment: inhibitors of HIV fusion peptide binding, primary screen, biochemical, uHTS, fluorescence dequenching (AID 1986)
Envelope glycoprotein gp160, sequence (Q6QLK5 whole entry, the tested form may be a part): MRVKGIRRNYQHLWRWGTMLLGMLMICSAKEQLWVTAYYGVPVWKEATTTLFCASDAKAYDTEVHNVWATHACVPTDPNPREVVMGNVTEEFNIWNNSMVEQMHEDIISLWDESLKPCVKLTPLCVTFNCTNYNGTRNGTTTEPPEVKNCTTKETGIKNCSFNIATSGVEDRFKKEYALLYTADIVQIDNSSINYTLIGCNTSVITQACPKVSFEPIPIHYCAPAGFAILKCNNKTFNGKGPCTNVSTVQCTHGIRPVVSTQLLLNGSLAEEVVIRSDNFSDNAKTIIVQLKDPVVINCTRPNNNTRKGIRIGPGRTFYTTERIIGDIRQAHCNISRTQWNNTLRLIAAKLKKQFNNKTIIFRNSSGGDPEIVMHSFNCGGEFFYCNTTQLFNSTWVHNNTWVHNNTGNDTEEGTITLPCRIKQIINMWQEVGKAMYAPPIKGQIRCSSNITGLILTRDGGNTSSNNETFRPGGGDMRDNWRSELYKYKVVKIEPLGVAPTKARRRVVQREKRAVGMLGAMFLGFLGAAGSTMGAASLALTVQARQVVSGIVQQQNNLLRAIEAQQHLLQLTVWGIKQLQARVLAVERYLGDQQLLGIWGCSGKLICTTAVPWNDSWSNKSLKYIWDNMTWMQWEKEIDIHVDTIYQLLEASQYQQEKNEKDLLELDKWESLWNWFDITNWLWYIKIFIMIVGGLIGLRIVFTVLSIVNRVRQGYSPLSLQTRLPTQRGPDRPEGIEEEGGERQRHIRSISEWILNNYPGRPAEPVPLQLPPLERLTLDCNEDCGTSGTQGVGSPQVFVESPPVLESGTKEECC

Streptococcus = experiment: Group A Streptococcus viability loss, dose response, counter-screen for streptokinase expression inhibitor project, luminescence, BacTiterGlo (AID 1915); type: functional, organism-based;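 further: potency for reduction of bacterial viability or growth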
Fatty acid synthase [11] = molecular target: T5, Fatty acid synthase; experiment: FAS thioesterase domain inhibitors, dose response, biochemical, endpoint fluorescence intensity, uHTS hits (AID 624327); type: functional;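 further: fluorescence from hydrolysis of an O-methyl fluorescein acyl ester substrate by the enzyme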
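Wherever AC50 is given: cells exposed to compound for roughly 70 hours or longer before luminescence read.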

Q: For `CC(C)c1ccc(C(=O)Nc2cc(Cl)ccc2C(=O)O)cc1`, which IC50 (Hexokinase) is on record?
A: Its IC50 is 2.89 µM (active).

Q: Which results are given for `CCN(CC)CCCN=C(S)N1CCN(c2nc(-c3ccccc3)cs2)CC1`?
A: IC50 (Vero [1]): > 100 µM (active); IC50 (Vero [2]): 17.3 µM (active); AC50 [3]: 3.77 µM (active); CC50 (Vero [4]): 15.3 µM (active)

Q: Which results are given for `O=C(CN(C(=O)CCC(=O)Nc1ccccn1)c1ccc2c(c1)OCO2)NCc1ccc(F)cc1`?
A: EC50 (Hexokinase-1): > 80 µM (inactive); IC50 (Hexokinase HKDC1): > 80 µM (inactive)

Q: For `CN(C)CCOc1cc(Cl)cc(Cl)c1`, which EC50 [5] is on record?
A: Its EC50 is 0.67 µM (active).

Q: Which IC50 [6] does the source give for `O=c1c(C(c2ccc([N+](=O)[O-])cc2)c2c(O)oc3ccccc3c2=O)c(O)oc2ccccc12` here?
A: Its IC50 is 7.83 µM (active).

Q: And the IC50 (Aminopeptidase N)?
A: Its IC50 is 34 µM (active).

Q: What about the IC50 (Fatty acid synthase [7]) of the same compound?
A: Its IC50 is 3.67 µM (active).

Q: And the EC50 (Streptokinase A)?
A: The EC50 was 13.4 µM (active).

Q: What about the IC50 [8] of the same compound?
A: The IC50 was 122 µM (active).

Q: And the EC50 [9]?
A: Its EC50 is 8.09 µM (active).

Q: What about the IC50 [10] of the same compound?
A: The IC50 was 13.8 µM (active).

Q: What about the EC50 (Streptococcus) of the same compound?
A: The EC50 was 102 µM (active).

Q: What about the IC50 (Fatty acid synthase [11]) of the same compound?
A: The IC50 was 4.65 µM (active).
